In patent EP3254699B1, “SOLID DISPERSION CONTAINING DUTASTERIDE, AND COMPOSITION CONTAINING SAME” (Whanin Pharmaceutical. Co., Ltd., priority 2015, dated 2016):
Where two headings read alike, the source gives them in different places.

Experiments:
[1] = Solubility of dutasteride: powder suspended in water at the supersaturation concentration of 1 mg/ml, 0.45 um filtering, HPLC; format: physicochemical; settings: raw material of dutasteride itself, compared in Experimental Example 4
Experimental: Alpha-cyclodextrin, beta-cyclodextrin, gamma-cyclodextrin and hydroxypropyl-beta-cyclodextrin were dissolved in water, respectively, and dutasteride was dissolved in the same amount of ethanol. Then, the two liquids were mixed to form an inclusion complex. In this case, the weight ratio of dutasteride and cyclodextrin was 1:100. The inclusion complex of cyclodextrin and dutasteride in the form of powder was obtained from the mixture solution of ethanol and distilled water through a drying process, followed by suspension in water at the supersaturation concentration of 1 mg/ml. The solubility was measured with HPLC after 0.45 um filtering. The analysis conditions and the result of solubility are as shown below.
• Column: Zobrax SB-Phenyl (150 mm x 3.0 mm, 3.5 um) or a column equivalent thereto • Mobile phase: Mixture liquid of acetonitrile and purified water (55:45, v/v) • Wavelength of detection: UV, 240 nm • Amount of injection: 50 uL • Flow rate: 0.5 mL/min
Gamma-cyclodextrin was dissolved in water, and dutasteride, polyvinyl pyrrolidone and gelucire (macrogol glyceride) were dissolved in the same amount of ethanol. Then, the experiment was performed as in Experimental Example 1 to evaluate the solubility of dutasteride.

[2] = cited from earlier work

Solubility of dutasteride [1]: not detected
SMILES: C[C@]12C=CC(=O)N[C@@H]1CC[C@@H]1[C@@H]2CC[C@]2(C)[C@@H](C(=O)Nc3cc(C(F)(F)F)ccc3C(F)(F)F)CC[C@@H]12 [dutasteride]
Solubility of dutasteride ([2]; in ethanol): 44 mg/mL | Solubility of dutasteride ([2]; in methanol): 64 mg/mL | Solubility of dutasteride ([2]; in polyethylene glycol 400): 3 mg/mL | Solubility of dutasteride ([2]; in water): poorly soluble
